Molecules are shown by their SMILES. pEC50: −log10 of the molar value. Some results are limits rather than exact numbers.

For the first test, the system named is RKN cells. Description: RKN cell profiling assay (cell viability, CellTiter-Glo). It counts as cell-based. Conditions: 96 h, 96 h exposure, read-out: Cell Killing EC50. How it is done:
RKN cells were suspended in assay medium (F-12 medium supplemented with 10% FBS and penicillin/streptomycin) and seeded at 1,000 cells per well (30 μL total volume) in opaque white 384-well plates (Corning). Cells were allowed to adhere for 24 h at 37° C. (95% humidity, 5% CO2) and then exposed to compounds disclosed herein for 72 h, or in the present case, 96 h. DMSO stock solutions of compounds were added to cells using a D300e Digital Dispenser (Tecan). The final DMSO concentration in each well was normalized to 0.5% (v/v) after compound treatment. Cell viability was measured using CellTiter-Glo (Promega). After incubation for 15 min at room temperature, luminescence was measured using a PHERAstar FSX microplate reader (BMG Labtech). Ferroptosis rescue experiments were performed as described previously using cells treated with ferrostatin-1 (fer-1, 1.5 μM) when seeding assay plates. Dose-response data were analyzed to determine EC50 values with GraphPad Prism 9 software using a four-parameter logistic equation or CDD Vault (Collaborative Drug Discovery) using the Levenberg-Marquardt algorithm.
A general note: ATP-based viability assays read luminescence as a measure of living cells.
With `CC(C)(C)CCS(=N)(=O)CC[C@H](N)C(=O)OC(C)(C)C` (stereo partly drawn) [Compound 96], the pEC50 is no more than 3.00.

As for `CCCCS(=N)(=O)CC[C@H](N)c1nnn[nH]1` (stereo partly drawn) [Compound 200, (1S)-3-(butylsulfonimidoyl)-1-(1H-tetrazol-5-yl)propan-1-amine], the negative-log EC50 (pEC50) is no more than 3.00.

As to `N=S(=O)(CCc1cccc(Cl)c1F)CC[C@H](N)C(=O)O` (stereo partly drawn) [Compound 28], the negative-log EC50 (pEC50) was no more than 3.00.

`N[C@@H](CC[S@@](=O)(CCCC(F)(F)F)=NP(=O)(O)O)C(=O)O` [Compound 138, (S)-2-amino-4-((S)-4,4,4-trifluoro-N-phosphonobutylsulfonimidoyl)butanoic acid]: the pEC50 was greater than 3.00.

The test is the same for the next values; noted with them: cell viability, read-out: Cell Killing EC50.
Take `N=S(=O)(CCC(c1ccc(-c2ccc(C(N)=O)nc2)cc1)C(F)(F)F)CC[C@H](N)C(=O)O` (stereo partly drawn) [Compound 245]: the pEC50 is no more than 3.00.

As for `N=S(=O)(CC[C@H](N)C(=O)O)CCC(O)(c1ccn(-c2ccc(Cl)cc2Cl)n1)C(F)(F)F` (stereo partly drawn) [Compound 336], the pEC50 was no more than 3.00.

As to `N=S(=O)(CCC(c1ccc(-c2ccc(Cl)cc2Cl)cc1)C(F)(F)F)CC[C@H](N)C(=O)O` (stereo partly drawn) [Compound 269], the negative logarithm of the EC50 (pEC50) is greater than 3.00.

In the case of `Cn1cc(-c2ccc(C(O)(CCS(=N)(=O)CC[C@H](N)C(=O)O)C(F)(F)F)nc2)cn1` (stereo partly drawn) [Compound 472], the pEC50 was no more than 3.00.

`N=S(=O)(CCC(c1ccc(-c2ccc(F)cc2O)cc1)C(F)(F)F)CC[C@H](N)C(=O)O` (stereo partly drawn) [Compound 281]: the pEC50 was greater than 3.00.

Regarding `C=C(C)c1ccc(C(CCS(=N)(=O)CC[C@H](N)C(=O)O)C(F)(F)F)cc1` (stereo partly drawn) [Compound 262], the negative-log EC50 (pEC50) is greater than 3.00.

Regarding `N=S(=O)(CCC(c1ccc(C2CC2)cc1)C(F)(F)F)CC[C@H](N)C(=O)O` (stereo partly drawn) [Compound 225], the pEC50 was greater than 3.00.

For the molecule `N=S(=O)(CCC(c1ccc(-c2cnc(N)nc2)cc1)C(F)(F)F)CC[C@H](N)C(=O)O` (stereo partly drawn) [Compound 251], the negative logarithm of the EC50 (pEC50) is no more than 3.00.

As to `Cc1ccccc1-c1ccc(C(CCS(=N)(=O)CC[C@H](N)C(=O)O)C(F)(F)F)cc1` (stereo partly drawn) [Compound 265], the pEC50 was greater than 3.00.

As for `N=S(=O)(CC[C@H](N)C(=O)O)CCC(O)(c1ccc(-c2ccco2)cn1)C(F)(F)F` (stereo partly drawn) [Compound 481], the pEC50 is greater than 3.00.

`N=S(=O)(CCC(c1ccc(-c2ccccc2Cl)cc1)C(F)(F)F)CC[C@H](N)C(=O)O` (stereo partly drawn) [Compound 221]: the pEC50 was greater than 3.00.

`N=S(=O)(CCC(c1ccccn1)C(F)(F)F)CC[C@H](N)C(=O)O` (stereo partly drawn) [Compound 313]: the negative-log EC50 (pEC50) was greater than 3.00.

`N=S(=O)(CCC(c1ccc(-c2cn[nH]c2)cc1)C(F)(F)F)CC[C@H](N)C(=O)O` (stereo partly drawn) [Compound 227]: the pEC50 is no more than 3.00.

For `N=S(=O)(CC[C@H](N)C(=O)O)CCC(O)([C@H]1CC[C@@H](c2ccc(Cl)cc2Cl)CC1)C(F)(F)F` (stereo partly drawn) [Compound 341], the pEC50 was greater than 3.00.

For the molecule `Cc1ccccc1-c1ccc(C(O)(CCS(=N)(=O)CC[C@H](N)C(=O)O)C(F)(F)F)cc1` (stereo partly drawn) [Compound 429], the pEC50 was greater than 3.00.

On to `Cc1cc(Cl)ccc1-c1cccc(C(CCS(=N)(=O)CC[C@H](N)C(=O)O)C(F)(F)F)c1` (stereo partly drawn) [Compound 283], for which the pEC50 was no more than 3.00.

For `Cc1cc(Cl)ccc1-c1cnc(C(O)(CCS(=N)(=O)CC[C@H](N)C(=O)O)C(F)(F)F)nc1` (stereo partly drawn) [Compound 474], the pEC50 was greater than 3.00.

As for `Cc1cc(F)ccc1-c1ccc(C(CCS(=N)(=O)CC[C@H](N)C(=O)O)C(F)(F)F)cc1` (stereo partly drawn) [Compound 278], the pEC50 was greater than 3.00.

Consider `N=S(=O)(CCC(c1ccc(-c2ccc(Cl)cc2O)cc1)C(F)(F)F)CC[C@H](N)C(=O)O` (stereo partly drawn) [Compound 282], for which the pEC50 was greater than 3.00.

Take `CN1CCN(c2ccc(-c3ccc(C(CCS(=N)(=O)CC[C@H](N)C(=O)O)C(F)(F)F)cc3)cn2)CC1` (stereo partly drawn) [Compound 249]: the pEC50 was no more than 3.00.

In the case of `N=S(=O)(CCC(c1ccc(-c2cccc(C(N)=O)c2)cc1)C(F)(F)F)CC[C@H](N)C(=O)O` (stereo partly drawn) [Compound 229], the pEC50 was no more than 3.00.

On to `Cc1cc(Cl)ccc1-c1ccc(C(CCS(=N)(=O)CC[C@H](N)C(=O)O)C(F)(F)F)cc1` (stereo partly drawn) [Compound 275], for which the negative-log EC50 (pEC50) is greater than 3.00.

Consider `N=S(=O)(CCC(c1ccc2[nH]cnc2c1)C(F)(F)F)CC[C@H](N)C(=O)O` (stereo partly drawn) [Compound 399], for which the pEC50 is no more than 3.00.

Turning to `N=S(=O)(CC[C@H](N)C(=O)O)CCC(O)(c1ccc(-c2ccc(Cl)cc2Cl)cn1)C(F)(F)F` (stereo partly drawn) [Compound 465], the pEC50 is no more than 3.00.

For the molecule `N=S(=O)(CC[C@H](N)C(=O)O)CCC(O)([C@H]1CC[C@H](c2ccc(Cl)cc2Cl)CC1)C(F)(F)F` (stereo partly drawn) [Compound 340], the negative logarithm of the EC50 (pEC50) was greater than 3.00.

Regarding `Cc1ccc(-c2cccc(C(CCS(=N)(=O)CC[C@H](N)C(=O)O)C(F)(F)F)c2)cc1` (stereo partly drawn) [Compound 285], the negative logarithm of the EC50 (pEC50) is no more than 3.00.

`Cc1ccc(-c2ccc(C(CCS(=N)(=O)CC[C@H](N)C(=O)O)C(F)(F)F)cc2)c(Cl)c1` (stereo partly drawn) [Compound 276]: the pEC50 was greater than 3.00.

With `N=S(=O)(CC[C@H](N)C(=O)O)CCC(O)(c1cnc(-c2ccc(Cl)cc2Cl)cn1)C(F)(F)F` (stereo partly drawn) [Compound 367], the pEC50 was greater than 3.00.

Consider `N=S(=O)(CCC(c1ccc2[nH]nnc2c1)C(F)(F)F)CC[C@H](N)C(=O)O` (stereo partly drawn) [Compound 393], for which the pEC50 was no more than 3.00.

With `N=S(=O)(CCC(c1ccc(-c2ccoc2)cc1)C(F)(F)F)CC[C@H](N)C(=O)O` (stereo partly drawn) [Compound 258], the pEC50 was greater than 3.00.

Regarding `N=S(=O)(CCC(c1cccc(-c2cccc(F)c2)c1)C(F)(F)F)CC[C@H](N)C(=O)O` (stereo partly drawn) [Compound 287], the pEC50 was no more than 3.00.

For `CC(C)(O)c1cccc(-c2ccc(C(CCS(=N)(=O)CC[C@H](N)C(=O)O)C(F)(F)F)cc2)c1` (stereo partly drawn) [Compound 241], the pEC50 was no more than 3.00.

Take `CNC(=O)c1cccc(-c2ccc(C(CCS(=N)(=O)CC[C@H](N)C(=O)O)C(F)(F)F)cc2)c1` (stereo partly drawn) [Compound 230]: the pEC50 is no more than 3.00.

As to `N=S(=O)(CC[C@H](N)C(=O)O)CCC1(c2ccc(Oc3ccc(Cl)cc3Cl)cc2)CCC1` (stereo partly drawn) [Compound 403], the pEC50 is no more than 3.00.

Turning to `N=S(=O)(CCC(CO)C(F)(F)F)CC[C@H](N)C(=O)O` (stereo partly drawn) [Compound 320], the pEC50 was greater than 3.00.

As for `N=S(=O)(CC[C@H](N)C(=O)O)CCC(O)(c1ncc(-c2ccccc2)cn1)C(F)(F)F` (stereo partly drawn) [Compound 467], the pEC50 is greater than 3.00.

`N=S(=O)(CCC(N1CCN(c2ccc(Cl)cc2Cl)CC1)C(F)(F)F)CC[C@H](N)C(=O)O` (stereo partly drawn) [Compound 423]: the negative logarithm of the EC50 (pEC50) is greater than 3.00.

Take `N=S(=O)(CCC(c1cccc(-c2ccc(Cl)cc2Cl)c1)C(F)(F)F)CC[C@H](N)C(=O)O` (stereo partly drawn) [Compound 288]: the pEC50 was no more than 3.00.

Turning to `N=S(=O)(CCC(c1ccc(-c2cnc(C3CC3)nc2)cc1)C(F)(F)F)CC[C@H](N)C(=O)O` (stereo partly drawn) [Compound 252], the pEC50 was no more than 3.00.

Consider `N=S(=O)(CCC(c1ccc(-c2cc[nH]n2)cc1)C(F)(F)F)CC[C@H](N)C(=O)O` (stereo partly drawn) [Compound 228], for which the pEC50 was no more than 3.00.

`N=S(=O)(CC[C@H](N)C(=O)O)CCC(O)(c1cc(-c2ccc(Cl)cc2Cl)cs1)C(F)(F)F` (stereo partly drawn) [Compound 337]: the pEC50 is greater than 3.00.

Consider `N=S(=O)(CC[C@H](N)C(=O)O)CCC(O)(c1ccc2ccccc2n1)C(F)(F)F` (stereo partly drawn) [Compound 373], for which the pEC50 is greater than 3.00.

Consider `Cc1ccc(-c2ccc(C(CCS(=N)(=O)CC[C@H](N)C(=O)O)C(F)(F)F)cc2)cn1` (stereo partly drawn) [Compound 246], for which the pEC50 was no more than 3.00.

Consider `COc1ccc(-c2ccc(C(CCS(=N)(=O)CC[C@H](N)C(=O)O)C(F)(F)F)cc2)c(Cl)c1` (stereo partly drawn) [Compound 268], for which the pEC50 was greater than 3.00.

The pEC50 is −log10 of the EC50, conventionally taken in molar units.

Values taken from patent US20260034094A1, “COMPOSITIONS AND METHODS FOR INDUCING FERROPTOSIS” (Kojin Therapeutics, Inc., priority 2022, published 2026).
